Assay results from US9714225B2, “Processes for the preparation of lorcaserin” (CADILA HEALTHCARE LIMITED, priority 2013, dated 2017).
Structures can show the parent of a compound that is named as a salt.

Columns and labels:
[1] = Stability of crystalline Form I of lorcaserin hydrochloride stored packed for at least 3 months; assay type: physicochemical; settings: 25° C./60% RH and 40° C./75% RH
Experimental: The crystalline Form I of lorcaserin hydrochloride having less than 0.5% water as manufactured by the process of the present invention was subjected to stability for at least 3 months at 25° C./60% RH or at about 40° C./75% RH.
In a further aspect, the stable crystalline Form I of lorcaserin hydrochloride can be stored under nitrogen atmosphere and packed in a double polythene bag which is either heat sealed or twisted and tied with a thread (primary packing). The primary packing containing the crystalline Form I of lorcaserin hydrochloride can be kept inside a black color polyethylene bag containing a desiccant (molecular sieves) which is either heat sealed or twisted and tied, and the above double polyethylene bags may further be placed inside a triple laminated bag, optionally containing a desiccant which is either heat sealed or twisted and tied. Finally, the triple laminated bag can be kept inside a closed high density polyethylene (HDPE) container and stored in a controlled environment chamber at 25° C. and/or 40° C.

[2] = cited from earlier work
[3] = 2 Months, LDPE bag closed with a heat seal (Table 1)
[4] = 2 Months, LDPE bag closed with a twist and tie (Table 2)
[5] = 3 Months, LDPE bag closed with a heat seal (Table 1)
[6] = 3 Months, LDPE bag closed with a twist and tie (Table 2)

## C[C@H]1CNCCc2ccc(Cl)cc21.Cl [(R)-8-chloro-1-methyl-2,3,4,5-tetrahydro-1H-3-benzazepine hydrochloride]
[1]; 1 Month, LDPE bag closed with a heat seal (Table 1), specification Less than 0.5% w/w
  Water (%): 0.31%
[1]; 1 Month, LDPE bag closed with a heat seal (Table 1), specification: should confirm the Form-I
  X-Ray Diffraction: Form I
[1]; 1 Month, LDPE bag closed with a twist and tie (Table 2), specification Less than 0.5% w/w
  Water (%): 0.31%
[1]; 1 Month, LDPE bag closed with a twist and tie (Table 2), specification: should confirm the Form-I
  X-Ray Diffraction: Form I
[1]; 1 Month, LDPE bag purged with nitrogen closed with a heat seal (Table 1), specification White to off-white
  Description: off-
[1]; 1 Month, LDPE bag purged with nitrogen closed with a twist and tie (Table 2), specification White to off-white
  Description: off-
[1]; [3]
  Description: off-
  Water (%): 0.35%
  X-Ray Diffraction: Form I
[1]; [4]
  Description: off-
  Water (%): 0.35%
  X-Ray Diffraction: Form I
[1]; [5]
  Description: off-white
  Water (%): 0.35%
  X-Ray Diffraction: Form I
[1]; [6]
  Description: off-white
  Water (%): 0.35%
  X-Ray Diffraction: Form I
[2]; DVS, between about 40 and about 80% RH
  moisture adsorbed (calculated): about 3.8%
[2]; DVS
  relative humidity (RH) above which moisture is readily adsorbed: 40-60%
[2]
  crystalline form by XRPD after the DVS cycle: conversion to the hemihydrate (Form III)

## C[C@H]1CNCCc2ccc(Cl)cc21 [Form III, (R)-8-chloro-1-methyl-2,3,4,5-tetrahydro-1H-3-benzazepine hydrochloride hemihydrate]
[2]; DVS, at 90% RH
  water adsorbed: less than 0.5%
[2]
  crystalline form by XRPD after the DVS cycle: no change in crystalline form
